{"source": "patent US11382884B2", "about": "“Method for reducing lung infection” (priority 2017, dated 2022)", "key": {"[1]": {"test_system": "P. aeruginosa clinical strain biofilms", "assay": "Biofilms in hanging drops of CF mucus treated with nebulised tobramycin and/or aerosolised EDTA particles", "assay_type": "cell-based, Pseudomonas aeruginosa", "settings": "for biofilm viability (BacLight LIVE/DEAD, confocal microscopy): 5 min treatment, nebulised tobramycin 20 mg/ml and/or aerosolised EDTA particles 10 mg/ml, 16 hours incubation, FIG. 24A", "quoted_text": "Biofilms were grown in a realistic in vitro model using suspended drops of cystic fibrosis mucus harvested from epithelial cell lines (Haley, C. L., Colmer-Hamood, J. A., and Hamood, A. N. (2012). Characterization of biofilm-like structures formed by Pseudomonas aeruginosa in a synthetic mucus medium. BMC Microbiol 12, 181.).\nDrops of mucus (5 μl) were suspended from an inverted IBIDI cover slip and inoculated with 10^3 cfu, then incubated in a humidified environment at 35° C. for 72 hours to allow biofilm development. […] Controls were treated with a 50/50 solution of nebulised 0.9% saline/water. Following treatment, the drops were incubated for 16 hours, then stained with BacLight LIVE/DEAD (1 μl), and fixed in paraformaldehyde vapour for 30 min. Biofilms were visualised using confocal microscopy."}, "[2]": {"test_system": "P. aeruginosa biofilms", "procedure": "Biofilm disruption or killing was monitored by growing cells as described and removing planktonic cells by pipetting. The attached biofilm was washed carefully with sterile PBS three times, and fresh medium containing the treatment (tobramycin alone or together with CaNa2EDTA in solution, tris-buffered solution, or as dry powder particles) was added. Plates were incubated for a further 24 hours and metabolic activity was measured. Biofilms were washed as described above, then fresh medium containing 0.02% w/v resazurin was added. Plates were shaken briefly to mix, then incubated at 37° C. for 2 hours. Metabolic activity, as reflected by the conversion of resazurin to resafurin, was assessed by measuring the increase in fluorescence at an excitation wavelength of 530 nm with detection at 590 nm."}, "[3]": {"test_system": "P. aeruginosa WACC91", "settings": "for interaction with tobramycin, planktonic growth (OD600 nm): checkerboard", "procedure": "(§1) Growth method 1: Cells were grown in M9 medium supplemented with arginine and MgSO4, in polystyrene 96-well plates (Nunc) by seeding each well with […] of an overnight culture of P. aeruginosa strain WACC 91 and incubating at 37° C. for 24 hours.\n(§2) Anaerobic cultures were incubated in a closed chamber with anaerobic sachets to remove oxygen.\n(§3) Planktonic growth was monitored by OD reading or plate counting. Biofilms were quantified by staining with 40 μl of crystal violet stain (1% w/v in water) for 10 min at room temperature, washing twice with 250 μl of water, dissolving the stain in 250 μl of 50% ethanol and reading optical density at 595 nm.\n(§4) Cells of P. aeruginosa WACC91 were grown according to method 1 and tested in a checkerboard assay against tobramycin and CaEDTA in varying concentrations."}, "[4]": {"settings": "single dose of 75 mg CaEDTA; after 30 minutes; FIG. 28", "procedure": "Vials were then centrifuged at 100 g for 5 min to sediment precipitated proteins and 754 μL of the methanol extract taken for derivatisation. […] Derivatised extract (1 μl) was injected into a Waters microflow HPLC equipped with a triple quad mass […] detector."}, "[5]": {"settings": "300 mg/day for two weeks (75 mg QID); FIG. 26", "procedure": "Subjects were then discharged and treatment was continued twice a day for four weeks. Patients were monitored for a further four weeks, bringing the total study time to 10 weeks. At each study visit, lung function was measured by spirometry. Data was recorded as the best of three attempts, and results were expressed as % predicted."}, "[6]": {"test_system": "P. aeruginosa WACC91 biofilms", "assay": "Checkerboard, biofilm growth (crystal violet staining), tobramycin with CaEDTA or buffered CaEDTA", "assay_type": "cell-based, Pseudomonas aeruginosa", "procedure": "as §1, §2, §3, §4"}, "[7]": {"test_system": "P. aeruginosa WACC91 planktonic cells", "assay": "Checkerboard, tobramycin with other chelators", "assay_type": "cell-based, Pseudomonas aeruginosa", "settings": "for effect on the MIC of tobramycin: concentration-dependent, FIGS. 13 and 14", "procedure": "(§5) Growth method 2: Overnight cultures of the relevant strain of P. aeruginosa were grown in M63 medium supplemented with glucose (0.5% w/v), casamino acids (0.2% w/v) and MgSO4 (1 mM) at 35° C. with shaking. 96-well microplates containing M63 with serial dilutions of antibiotics and adjuvants as indicated were inoculated to OD600 nm 0.01 in a final volume of 200 μl. Plates were incubated at 35° C. overnight without shaking.\nCells were grown according to method 2 and challenged with different concentrations of tobramycin."}, "[8]": {"test_system": "P. aeruginosa planktonic cells and biofilms", "assay": "Microplate test of antibiotics of different classes with buffered CaEDTA", "assay_type": "cell-based, Pseudomonas aeruginosa", "settings": "growth method 2; FIGS. 7-12", "procedure": "as §5, §3\nCells were grown according to method 2 and challenged with buffered CaEDTA and a series of clinically relevant antibiotics of different classes with different modes of action."}, "[9]": {"test_system": "P. aeruginosa ATCC27853", "assay": "Time-kill assay, ceftazidime with or without buffered CaEDTA", "assay_type": "cell-based, Pseudomonas aeruginosa", "settings": "ceftazidime 128 ug/ml, buffered CaEDTA 20 mM", "procedure": "This is likely a result of increased antibiotic killing. Challenge microorganisms were grown on solid agar and suspended in 0.9% Sodium Chloride (SCl) to create a challenge suspension. A 0.1 mL aliquot of the challenge suspension containing approximately 1×10^8 colony forming units was then inoculated into 10 mL Cation-Adjusted Mueller Hinton Broth (CaMHB) with the appropriate antibiotic or antibiotic with chelator, as indicated, and mixed thoroughly. The challenge suspension/antibiotic mixtures were then incubated at 35 degrees C. for the exposure time. At each timepoint, 0.1 mL aliquots were removed and placed into 9.9 mL of Butterfield's Phosphate Buffer with product neutralizers, mixed thoroughly by vortexing, and plated using the appropriate agar. Recovered colonies were enumerated using a hand-tally counter."}, "[10]": {"test_system": "Staphylococcus aureus MRSA", "assay": "Antibiotics with buffered CaEDTA against MRSA", "assay_type": "cell-based", "settings": "FIG. 19 (vancomycin), FIG. 21 (ciprofloxacin)", "procedure": "(§6) Checkerboard assays of other species were carried out using growth method 1, apart from the following variations. Burkholderia cepacia was incubated at 30° C., and other bacteria were incubated at 37° C. Streptococcus pyogenes and Streptococcus pneumoniae were grown in Todd Hewitt Broth, and Staphylococcus aureus was grown in Veal Infusion Broth."}, "[11]": {"test_system": "S. aureus MSSA", "assay": "Ciprofloxacin with buffered CaEDTA against MSSA", "assay_type": "cell-based, Staphylococcus aureus", "settings": "FIG. 20", "procedure": "as §6"}, "[12]": {"test_system": "Burkholderia cepacia planktonic cells", "assay": "Checkerboard, antibiotics with buffered CaEDTA", "assay_type": "cell-based", "settings": "FIGS. 15 and 16", "procedure": "as §6"}, "[13]": {"test_system": "P. aeruginosa clinical strain", "assay": "MIC of tobramycin for the clinical strain", "assay_type": "cell-based", "settings": "Pseudomonas aeruginosa; P. aeruginosa clinical strain used in the CF mucus model"}, "[14]": {"test_system": "Klebsiella pneumoniae planktonic cells and biofilms", "assay": "Checkerboard, colistin with buffered CaEDTA", "assay_type": "cell-based", "procedure": "as §6"}, "[15]": {"test_system": "P. aeruginosa", "settings": "ten CF children, nebulised sodium EDTA and oral tetracycline for three months; cited from earlier work"}, "[16]": {"settings": "4 ug/ml tobramycin, 6.25 mM CaEDTA, aerobic and anaerobic, FIG. 5"}}, "note": "Read-outs that look alike come from different tables or passages of the source.", "data": [{"molecule": "O=C([O-])CN(CCN(CC(=O)[O-])CC(=O)[O-])CC(=O)[O-].[Ca+2].[Na+].[Na+]", "note": "[CaEDTA]", "values": [{"measurement": "biofilm viability (BacLight LIVE/DEAD, confocal microscopy)", "setting": "[1]", "result": "some degree of killing"}, {"measurement": "interaction with tobramycin on biofilms in CF mucus", "setting": "[1]; submicron particles of CaEDTA, tobramycin 325 μg/ml final in droplets, FIG. 24", "result": "act synergistically"}, {"measurement": "effect on efficacy of tobramycin against existing biofilms (metabolic activity)", "setting": "[2]; FIG. 6", "result": "increases the efficacy"}, {"measurement": "dependence of the synergistic effect on mode of delivery", "setting": "[2]; solution or dry powder, FIG. 6B", "result": "does not depend on the mode of delivery"}, {"measurement": "interaction with tobramycin, metabolism of biofilms", "setting": "[2]; submicron particles of CaEDTA, aerosolised, 96-well plates, FIG. 6", "result": "synergistic effect"}, {"measurement": "effect on killing of biofilms by tobramycin", "setting": "[2]; tobramycin concentrations<1 mg/ml, FIG. 6A", "result": "substantially enhances killing"}, {"measurement": "planktonic growth when CaEDTA is added to tobramycin", "setting": "[3]; [16]", "result": "reduced"}, {"measurement": "interaction with tobramycin, planktonic growth (OD600 nm)", "setting": "[3]; aerobic conditions, FIG. 1", "result": "synergistic effect"}, {"measurement": "interaction with tobramycin, planktonic growth (OD600 nm)", "setting": "[3]; anaerobic conditions, FIG. 3", "result": "synergistic effect"}, {"measurement": "effect on the MIC of tobramycin", "setting": "[3]; planktonic cells, aerobic conditions, FIG. 1", "result": "lowers the MIC"}, {"measurement": "lowest effective concentration in vitro", "setting": "[3]; with tobramycin, FIGS. 1B and 2B", "result": 0.078, "unit": "mM"}, {"measurement": "EDTA inside mucus plugs", "setting": "[4]", "result": "up to 1.34 mM"}, {"measurement": "improvement in lung function (FEV1), average", "setting": "[5]", "result": 16, "unit": "% points"}, {"measurement": "biofilm growth when CaEDTA is added to tobramycin", "setting": "[6]; [16]", "result": "reduced"}, {"measurement": "interaction with tobramycin, biofilm growth (CV staining)", "setting": "[6]; aerobic conditions, checkerboard, FIG. 2", "result": "synergistic effect"}, {"measurement": "effect on the concentration of tobramycin required to block biofilm formation", "setting": "[6]; aerobic, FIG. 2", "result": "lowers the concentration of tobramycin required"}, {"measurement": "interaction with tobramycin, biofilms", "setting": "[6]; anaerobic conditions, checkerboard, FIG. 4", "result": "synergistic effect"}]}, {"molecule": "O=C(O)CN(CCN(CC(=O)O)CC(=O)O)CCN(CC(=O)O)CC(=O)O", "note": "[DTPA, diethylenetriaminepentaacetic acid]", "values": [{"measurement": "interaction with tobramycin", "setting": "[7]; FIG. 14", "result": "synergy"}, {"measurement": "effect on the MIC of tobramycin", "setting": "[7]", "result": "reduce the MIC"}]}, {"molecule": "O=C(O)CN(CCOCCOCCN(CC(=O)O)CC(=O)O)CC(=O)O", "note": "[EGTA, ethylene glycol tetraacetic acid]", "values": [{"measurement": "effect on the MIC of tobramycin", "setting": "[7]", "result": "reduce the MIC"}]}, {"molecule": "C[C@H]1[C@H](NC(=O)/C(=N\\OC(C)(C)C(=O)O)c2csc(N)n2)C(=O)N1S(=O)(=O)O", "note": "[aztreonam]", "values": [{"measurement": "sensitivity of P. aeruginosa to the antibiotic in the presence of buffered CaEDTA", "setting": "[8]", "result": "increases the sensitivity"}]}, {"molecule": "CC1(C)S[C@@H]2[C@H](NC(=O)C(C(=O)O)c3ccccc3)C(=O)N2[C@H]1C(=O)O", "note": "(stereo partly shown) [carbenicillin]", "values": [{"measurement": "sensitivity of P. aeruginosa to the antibiotic in the presence of buffered CaEDTA", "setting": "[8]", "result": "increases the sensitivity"}]}, {"molecule": "CC(C)(O/N=C(\\C(=O)N[C@@H]1C(=O)N2C(C(=O)[O-])=C(C[n+]3ccccc3)CS[C@H]12)c1csc(N)n1)C(=O)O", "note": "[ceftazidime]", "values": [{"measurement": "rate of killing in the presence of buffered CaEDTA", "setting": "[9]", "result": "much more rapid"}]}, {"molecule": "O=C(O)c1cn(C2CC2)c2cc(N3CCNCC3)c(F)cc2c1=O", "note": "[ciprofloxacin]", "values": [{"measurement": "MIC in the presence of buffered CaEDTA", "setting": "[10]", "result": "reduced MIC values"}, {"measurement": "MIC in the presence of buffered CaEDTA", "setting": "[11]", "result": "reduced MIC values"}, {"measurement": "MIC of B. cepacia in the presence of buffered CaEDTA", "setting": "[12]", "result": "lowered"}]}, {"molecule": "CC[C@H]1OC(=O)[C@H](C)[C@@H](O[C@H]2C[C@@](C)(OC)[C@@H](O)[C@H](C)O2)[C@H](C)[C@@H](O[C@@H]2O[C@H](C)C[C@H](N(C)C)[C@H]2O)[C@](C)(O)C[C@@H](C)C(=O)[C@H](C)[C@@H](O)[C@]1(C)O", "note": "[erythromycin]", "values": [{"measurement": "sensitivity of P. aeruginosa to the antibiotic in the presence of buffered CaEDTA", "setting": "[8]", "result": "increases the sensitivity"}]}, {"molecule": "COc1cccc(OC)c1C(=O)N[C@@H]1C(=O)N2[C@@H]1SC(C)(C)[C@@H]2C(=O)O", "note": "[methicillin]", "values": [{"measurement": "sensitivity of P. aeruginosa to the antibiotic in the presence of buffered CaEDTA", "setting": "[8]", "result": "increases the sensitivity"}]}, {"molecule": "NC[C@H]1O[C@H](O[C@H]2[C@H](O)[C@@H](O[C@H]3O[C@H](CO)[C@@H](O)[C@H](N)[C@H]3O)[C@H](N)C[C@@H]2N)[C@H](N)C[C@@H]1O", "note": "[tobramycin]", "values": [{"measurement": "MIC", "setting": "[13]", "result": "> 256", "unit": "µg/mL"}, {"measurement": "biofilm viability (BacLight LIVE/DEAD, confocal microscopy)", "setting": "[1]", "result": "little effect on viability"}, {"measurement": "biofilm formation at sub-MIC concentration", "setting": "[6]; tobramycin alone, 4 ug/ml, FIG. 5", "result": "increase biofilm formation"}, {"measurement": "MIC of B. cepacia in the presence of buffered CaEDTA", "setting": "[12]", "result": "lowered"}]}, {"molecule": "CN[C@H](CC(C)C)C(=O)N[C@H]1C(=O)N[C@@H](CC(N)=O)C(=O)N[C@H]2C(=O)N[C@H]3C(=O)N[C@H](C(=O)N[C@H](C(=O)O)c4cc(O)cc(O)c4-c4cc3ccc4O)[C@H](O)c3ccc(c(Cl)c3)Oc3cc2cc(c3O[C@@H]2O[C@H](CO)[C@@H](O)[C@H](O)[C@H]2O[C@H]2C[C@](C)(N)[C@H](O)[C@H](C)O2)Oc2ccc(cc2Cl)[C@H]1O", "note": "[vancomycin]", "values": [{"measurement": "MIC in the presence of buffered CaEDTA", "setting": "[10]", "result": "reduced MIC values"}]}, {"molecule": "colistin", "values": [{"measurement": "sensitivity of planktonic cells in the presence of buffered CaEDTA", "setting": "[14]; FIG. 17A", "result": "sensitized"}, {"measurement": "sensitivity of biofilms in the presence of buffered CaEDTA", "setting": "[14]; FIG. 17B", "result": "sensitized"}, {"measurement": "sensitivity of P. aeruginosa to the antibiotic in the presence of buffered CaEDTA", "setting": "[8]", "result": "increases the sensitivity"}]}, {"molecule": "sodium EDTA", "values": [{"measurement": "lung function or infection status", "setting": "[15]", "result": "no change in lung function or infection status"}]}]}
